Experimental findings from patent publication US6476025B1, “Phenylphennanthridines with PDE-IV inhibiting activity” (Altana Pharma AG, priority 1999, dated 2002) are described below.

This experiment concerns PDE4. The experiment is described as follows: Inhibition of PDE4 activity (method of Bauer and Schwabe, adapted to microtiter plates). Type of experiment: biochemical. Conditions: inhibitory concentration as −log IC50 (mol/l). The protocol: The activity test was carried out according to the method of Bauer and Schwabe, which was adapted to microtiter plates (Naunyn-Schmiedeberg's Arch. Pharmacol. 1980, 311, 193-198). The PDE reaction takes place in the first step here. In a second step, the resulting 5′-nucleotide is cleaved by a 5′-nucleotidase of the snake venom of Crotalus atrox to the uncharged nucleoside. In the third step, the nucleoside is separated from the remaining charged substrate on ion-exchange columns. The columns are eluted directly into minivials, into which 2 ml of scintillator fluid are additionally added, for counting using 2 ml of 30 mM ammonium formate (pH 6.0).
The inhibitory values determined for the compounds according to the invention [inhibitory concentration as −log Ic50 (mol/l)] follow from the following Table A, in which the numbers of the compounds correspond to the numbers of the examples.
Turning to `COc1cc2c(cc1OC)[C@@H]1CCCC[C@@H]1N=C2c1cccc(S(=O)(=O)c2ccccc2)c1` [Compound 33, (−)-cis-8,9-Dimethoxy-6-[3-(phenylsulfonyl)phenyl]-1,2,3,4,4a,10b-hexahydrophenanthridine], the “−log IC50, inhibition of the PDE4 activity” value (shortened to “−log IC50, inhibition”) is 8.23.
On to `COc1cc2c(cc1OC)[C@@H]1CCCC[C@@H]1N=C2c1cccc(OS(C)(=O)=O)c1` [Compound 13, (−)-cis-8,9-Dimethoxy-6-(3-methanesulfonyloxyphenyl)-1,2,3,4,4a,10b-hexahydrophenanthridine], for which the “−log IC50, inhibition” value worked out at 8.33.
Consider `CCOc1cc2c(cc1OC)C(c1ccc(C(=O)c3ccccc3)cc1)=N[C@H]1CCCC[C@@H]21` [Compound 25, (−)-cis-9-Ethoxy-8-methoxy-6-(4-benzoylphenyl)-1,2,3,4,4a,10b-hexahydrophenanthridine], for which the “−log IC50, inhibition” value came to 8.87.
As for `COc1cc2c(cc1OC)[C@@H]1CCCC[C@@H]1N=C2c1ccc(OCc2ccccc2)c(OCC2CC2)c1` [Compound 10, (−)-cis-6-(4-Benzyloxy-3-cyclopropylmethoxyphenyl)-8,9-dimethoxy-1,2,3,4,4a,10b-hexahydrophenanthridine], the “−log IC50, inhibition” value is reported as 8.09.
To `COc1cc2c(cc1OC)[C@@H]1CCCC[C@@H]1N=C2c1ccc(OC)c(OCC2CC2)c1` [Compound 12, (−)-cis-8,9-Dimethoxy-6-[3-cyclopropylmethoxy4-methoxyphenyl]-1,2,3,4,4a,10b-hexahydrophenanthridine] belongs 7.80; to `CCOc1ccc(C2=N[C@H]3CCCC[C@H]3c3cc(OC)c(OC)cc32)cc1OCC1CC1` [Compound 38, (−)-cis-8,9-Dimethoxy-6-(3-cyclopropylmethoxy-4-ethoxyphenyl)-1,2,3,4,4a,10b-hexahydrophenanthridine], 7.47.
In the case of `COc1cc2c(cc1OC)C1CCCCC1N=C2c1ccc(OCC2CC2)c(OCC2CC2)c1` (single isomer, unassigned; (-)) [Compound 15, (−)-cis-8,9-Dimethoxy-6-[3,4-bis-(cyclopropylmethoxy)phenyl]-i,2,3,4,4a,10b-hexahydrophenanthridine], the “−log IC50, inhibition” value is listed as 7.89.
As for `COc1ccc(Oc2cccc(C3=N[C@H]4CCCC[C@H]4c4cc(OC)c(OC)cc43)c2)cc1` [Compound 36, (−)-cis-8,9-Dimethoxy-6-[3-(4-methoxyphenoxy)phenyl]-1,2,3,4,4a,10b-hexahydrophenanthridine], the “−log IC50, inhibition” value came out at 8.78.
Turning to `COc1cc2c(cc1OC)C1CCCCC1N=C2c1ccc(OC)c(OC2CCC2)c1` (single isomer, unassigned; (-)) [Compound 44, (−)cis-8,9-Dimethoxy-6-[(3-cyclobutoxy-4-methoxy)phenyl]-1,2,3,4,4a,10b-hexahydrophenanthridine], the “−log IC50, inhibition” value is 7.58.
To `COc1cc2c(cc1OC)C1CCCCC1N=C2c1ccc(C(=O)c2ccncc2)cc1` (single isomer, unassigned; (-)) [Compound 32, (−)-cis-8,9-Dimethoxy-6-[4-(pyridyl-4-carbonyl)phenyl]-1,2,3,4,4a,10b-hexahydrophenanthridine] belongs 7.45; to `COc1cc2c(cc1OC)[C@@H]1CCCC[C@@H]1N=C2c1ccc(C(=O)c2ccc(C#N)cc2)cc1` [Compound 31, (−)-cis-8,9-Dimethoxy-6-[4-(4-cyanobenzoyl)phenyl]-1,2,3,4,4a,10b-hexahydrophenanthridine], 7.8.
As to `COc1cc2c(cc1OC)[C@@H]1CCCC[C@@H]1N=C2c1ccc(S(=O)(=O)c2ccccc2)cc1` [Compound 34, (−)-cis-8,9-Dimethoxy-6-[4-(phenylsulfonyl)phenyl]-1,2,3,4,4a,10b-hexahydrophenanthridine], the “−log IC50, inhibition” value is recorded as 7.89.
For `COc1cc2c(cc1OC)[C@@H]1CCCC[C@@H]1N=C2c1ccc(OC)c(OCc2ccccc2)c1` [Compound 11, (+)-cis-6-(3-Benzyloxy-4-methoxyphenyl)-8,9-dimethoxy-1,2,3,4,4a,10b-hexahydrophenanthridine], the “−log IC50, inhibition” value was 8.03.
In the case of `COc1cc2c(cc1OC)[C@@H]1CCCC[C@@H]1N=C2c1cccc(C(=O)c2ccccc2)c1` [Compound 3, (−)-cis-8,9-Dimethoxy-6-(3-benzoylphenyl)-1,2,3,4,4a,10b-hexahydrophenanthridine], the “−log IC50, inhibition” value is given as 8.64.
On to `COc1cc2c(cc1OC)C1CCCCC1N=C2c1ccc(C(C)=O)cc1` (single isomer, unassigned; (-)) [Compound 2, (−)-cis-8,9-Dimethoxy-6-(4-acetophenyl)-1,2,3,4,4a,10b-hexahydrophenanthridine], for which the “−log IC50, inhibition” value is reported as 7.27.
Consider `COc1ccc(C(=O)c2ccc(C3=N[C@H]4CCCC[C@H]4c4cc(OC)c(OC)cc43)cc2)cc1` [Compound 26, (−)-cis-8,9-Dimethoxy-6-[4-(4-methoxybenzoyl)phenyl]-1,2,3,4,4a,10b-hexahydrophenanthridine], for which the “−log IC50, inhibition” value turned out to be 7.46.
To `COc1cc2c(cc1OC)[C@@H]1CCCC[C@@H]1N=C2c1cccc(OS(=O)(=O)c2ccc(C)cc2)c1` [Compound 14, (−)-cis-8,9-Dimethoxy-6-[3-(p-toluenesulfonyloxy)phenyl)-1,2,3,4,4a,10b-hexahydrophenanthridine] belongs 8.44; to `COc1cc2c(cc1OC)[C@@H]1CCCC[C@@H]1N=C2c1ccc(CN2CCOCC2)cc1` [Compound 21, (−)-cis-8,9-Dimethoxy-6-[4-(morpholin-4-ylmethyl)phenyl]-1,2,3,4,4a,10b-hexahydrophenanthridine], 7.35.
Under `COc1cc2c(cc1OC)C1CCCCC1N=C2c1ccc(C(=O)N2CCCCC2)cc1` (single isomer, unassigned; (-)) [Compound 16, (−)-cis-8,9-Dimethoxy-[4-(piperdin-1-ylcarbonyl)phenyl]-1,2,3,4,4a,10b-hexahydrophenanthridine] stands 8.02; under `COc1cc2c(cc1OC)[C@@H]1CCCC[C@@H]1N=C2c1ccc(C(=O)c2ccc(Cl)cc2)cc1` (relative stereo) [Compound 27, (−)-cis-8,9-Dimethoxy-6-[4-(4-chlorbenzoyl)phenyl]-1,2,3,4,4a,10b-hexahydrophenanthridine], 7.3.
As for `COc1cc2c(cc1OC)[C@@H]1CCCC[C@@H]1N=C2c1cccc(Oc2ccncc2)c1` [Compound 37, (−)-cis-8,9-Dimethoxy-6-[3-(pyrid-4-yloxy)phenyl]-1,2,3,4,4a,10b-hexahydrophenanthridine], the “−log IC50, inhibition” value is 7.92.
Regarding `COc1cc2c(cc1OC)[C@@H]1CCCC[C@@H]1N=C2c1ccc(C(=O)c2ccccc2)cc1` [Compound 1, (−)-cis-8,9-Dimethoxy-6-(4-benzoylphenyl)-1,2,3,4,4a,10b-hexahydrophenanthridine], the “−log IC50, inhibition” value amounted to 7.82.
To `COc1cc2c(cc1OC)[C@@H]1CCCC[C@@H]1N=C2c1ccc(OC(F)F)c(OCC2CC2)c1` [Compound 42, (−)-cis-8,9-Dimethoxy-6-(3-cyclopropylmethoxy-4-difluoromethoxyphenyl)-1,2,3,4,4a,10b-hexahydrophenanthridine] belongs 7.43; to `COc1cc2c(cc1OC)[C@@H]1CCCC[C@@H]1N=C2c1ccc(C(=O)c2ccc([N+](=O)[O-])cc2)cc1` [Compound 29, (−)cis-8,9-Dimethoxy-6-[4-(4-nitrobenzoyl)phenyl]-1,2,3,4,4a,10b-hexahydrophenanthridine], 7.28.
For `COc1cc2c(cc1OC)[C@@H]1CCCC[C@@H]1N=C2c1ccc(C(=O)c2cccc(Cl)c2)cc1` (relative stereo) [Compound 28, (−)-cis-8,9-Dimethoxy-6-[4-(3-chlorbenzoyl)phenyl]-1,2,3,4,4a,10b-hexahydrophenanthridine], the “−log IC50, inhibition” value amounted to 7.61.
On to `COc1cc2c(cc1OC)[C@@H]1CCCC[C@@H]1N=C2c1cccc(Oc2ccccc2)c1` [Compound 5, (−)-cis-8,9-Dimethoxy-6-(3-phenoxyphenyl)-1,2,3,4,4a,10b-hexahydrophenanthridine], for which the “−log IC50, inhibition” value came to 8.54.
Under `CCOc1cc2c(cc1OC)C(c1ccc(OCC3CC3)c(OCC3CC3)c1)=NC1CCCCC21` (single isomer, unassigned; (-)) [Compound 40, (−)-cis-9-Ethoxy-8-methoxy-6-[3,4-bis(cyclopropylmethoxy)phenyl]-4,2,3,4,4a,10b-hexahydrophenanthridine] stands 8.65; under `COc1cc2c(cc1OC)C1CCCCC1N=C2c1ccc(OC)c(N2CCCC2)c1` (single isomer, unassigned; (-)) [Compound 46, (−)-cis-8,9-Dimethoxy-6-[(4-methoxy-3-pyrrolidin-1-yl)phenyl]-1,2,3,4,4a,10b-hexahydrophenanthridine], 7.16; under `CCC(=O)c1ccc(C2=N[C@H]3CCCC[C@H]3c3cc(OC)c(OC)cc32)cc1` [Compound 50, (−)-cis-8,9-Dimethoxy-6-[4-propionylphenyl]-1,2,3,4,4a,10b-hexahydrophenanthridine], 7.98.
For `COc1cc2c(cc1OC)C1CCCCC1N=C2c1ccc(NC(C)=O)c(OCC2CC2)c1` (single isomer, unassigned; (-)) [Compound 45, (−)-cis-8,9-Dimethoxy-6-[(3-cyclopropylmethoxy-4-acetamido)phenyl]-1,2,3,4,4a,10b-hexahydrophenanthridine], the “−log IC50, inhibition” value is on record as 8.04.
